Like-named read-outs stand apart in the source and are kept apart here.
Experiments:
MeWo cells = assay: Cell viability assay (XTT or Presto Blue), MeWo; format: cell-based, human; conditions: increasing concentrations, different incubation times
Excerpt: (§1) Cells grew in Dulbecco’s Modified Eagle Medium (DMEM) high glucose (Sigma-Aldrich) supplemented with heat-inactivated 10% fetal bovine serum (FBS) (HyClone™, GE Healthcare, IL, USA). […] Primary human melanocytes (human epidermal melanocytes, neonatal, light pigmented, HEMn-LP) were purchased from Invitrogen (Waltham, MA, USA, C-002-5C).
(§2) Two colorimetric assays were used to study the cytotoxic effects of the selected compounds: the XTT Cell Proliferation Kit II (Roche) and Presto Blue™ Cell Viability Reagent (Invitrogen). Exponentially growing cell lines seeded at 20,000 cells/well in 96-well flat bottom plates (Sarstedt) were incubated overnight in 150 µL of the corresponding growth medium. The following day, the medium was replaced by fresh medium (150 µL) containing 1% FBS (except for melanocytes) and 0.9% DMSO in the presence or absence of different concentrations of compounds. A2058 and MeWo cells were treated with increasing compound concentrations for cell viability assays. […] Cell viability in plates treated with XTT was determined by reading the absorbance at 490 nm in a Synergy HTX plate reader (BioTek). […] In both cases, the absorbance of the medium was subtracted from cell-containing wells. Control values (without compounds but with 0.9% DMSO) were taken as 100% viability.

A2058 cells = assay: Cell viability assay (XTT or Presto Blue), A2058; format: cell-based, human; conditions: for Effect on cell viability (toxicity), A2058: increasing concentrations, different incubation times
Excerpt: as §1, §2

[1] = tested on: non-transformed cell lines; design: method as in PMID 19027770, PMID 17981006, PMID 18171263; conditions: cited from earlier work
Hsc70 + DnaJB1 = biological target: T1, Hsc70 + DnaJB1 (Homo sapiens, UniProt P11142); assay: Reactivation of G6PDH aggregates by the binary chaperone mixture; format: biochemical; conditions: 2 µM Hsc70, 0.5 µM DnaJB1, 0.4 µM G6PDH aggregates; means ± SD of three experiments
T1 construct: His6-SUMO (N, cleaved yes); made in house; host or cells: E. coli BL21 Rosetta
T1 sequence (P11142 whole entry): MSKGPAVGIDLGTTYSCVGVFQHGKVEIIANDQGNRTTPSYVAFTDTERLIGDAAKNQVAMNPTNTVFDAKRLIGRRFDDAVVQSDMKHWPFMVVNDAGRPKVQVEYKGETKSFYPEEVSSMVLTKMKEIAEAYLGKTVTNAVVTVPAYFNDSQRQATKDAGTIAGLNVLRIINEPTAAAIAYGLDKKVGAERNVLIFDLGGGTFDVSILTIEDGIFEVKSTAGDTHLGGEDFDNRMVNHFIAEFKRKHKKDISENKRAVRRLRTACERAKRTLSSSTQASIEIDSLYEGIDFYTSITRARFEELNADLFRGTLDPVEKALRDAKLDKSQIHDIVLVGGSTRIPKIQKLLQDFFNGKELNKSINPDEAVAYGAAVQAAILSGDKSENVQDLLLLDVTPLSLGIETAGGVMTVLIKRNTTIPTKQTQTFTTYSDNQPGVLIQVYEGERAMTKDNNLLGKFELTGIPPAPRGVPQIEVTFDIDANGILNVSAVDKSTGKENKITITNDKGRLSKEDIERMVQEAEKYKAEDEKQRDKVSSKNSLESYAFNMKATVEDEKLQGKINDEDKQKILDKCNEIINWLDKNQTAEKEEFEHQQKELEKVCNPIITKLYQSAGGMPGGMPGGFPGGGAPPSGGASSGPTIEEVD
Description: (§3) Subsequently, aggregates were stabilized for 30 min at 30 °C. The properties of these aggregates have been previously reported, and typically show a hydrodynamic radius of approximately 500–600 nm. Aggregates (0.4 µM final concentration) were added to samples containing 2 µM Hsc70 and 0.5 µM DnaJB1 in the absence or presence of 0.4 µM Apg2. […] A preincubation of the samples with compounds for 30 min at 30 °C was done prior to starting the reaction. The reaction was started with the addition of 2 mM ATP and the ATP-regeneration system (3 mM PEP and 20 ng/mL PK). Final sample volume was 100 µL. Reactivation was monitored at 30 °C for 180 min. At different times of the reaction, 5 µL of sample were added to 250 µL buffer containing 50 mM Tris-HCl pH 7.5, 50 mM KCl, 20 mM MgCl2, 10 mM DTT, 1 mM NADP^+, 2.5 mM G6P (Sigma-Aldrich). NADPH formation was measured recording the absorbance increase at 340 nm in a Synergy HTX plate reader (BioTek, Winooski, VT, USA) in transparent 96-well plates with flat bottom (Sarstedt, Newton, NC, USA) for 5 min. Reactivation percentages were calculated considering the slope of NADPH formation for native G6PDH as 100% activity. […] IC50 values were estimated with a sigmoidal dose-response ligand-binding equation.

Hsc70 + DnaJB1 + Apg2 = biological target: T2, Hsc70 + DnaJB1 + Apg2 (Homo sapiens, UniProt P11142+P34932); assay: Reactivation of G6PDH aggregates by the ternary chaperone mixture; format: biochemical
T2 construct: His6-SUMO (N, cleaved yes); made in house; host or cells: E. coli BL21 Rosetta
T2 sequence (P11142 whole entry): as above
T2 sequence (P34932 whole entry): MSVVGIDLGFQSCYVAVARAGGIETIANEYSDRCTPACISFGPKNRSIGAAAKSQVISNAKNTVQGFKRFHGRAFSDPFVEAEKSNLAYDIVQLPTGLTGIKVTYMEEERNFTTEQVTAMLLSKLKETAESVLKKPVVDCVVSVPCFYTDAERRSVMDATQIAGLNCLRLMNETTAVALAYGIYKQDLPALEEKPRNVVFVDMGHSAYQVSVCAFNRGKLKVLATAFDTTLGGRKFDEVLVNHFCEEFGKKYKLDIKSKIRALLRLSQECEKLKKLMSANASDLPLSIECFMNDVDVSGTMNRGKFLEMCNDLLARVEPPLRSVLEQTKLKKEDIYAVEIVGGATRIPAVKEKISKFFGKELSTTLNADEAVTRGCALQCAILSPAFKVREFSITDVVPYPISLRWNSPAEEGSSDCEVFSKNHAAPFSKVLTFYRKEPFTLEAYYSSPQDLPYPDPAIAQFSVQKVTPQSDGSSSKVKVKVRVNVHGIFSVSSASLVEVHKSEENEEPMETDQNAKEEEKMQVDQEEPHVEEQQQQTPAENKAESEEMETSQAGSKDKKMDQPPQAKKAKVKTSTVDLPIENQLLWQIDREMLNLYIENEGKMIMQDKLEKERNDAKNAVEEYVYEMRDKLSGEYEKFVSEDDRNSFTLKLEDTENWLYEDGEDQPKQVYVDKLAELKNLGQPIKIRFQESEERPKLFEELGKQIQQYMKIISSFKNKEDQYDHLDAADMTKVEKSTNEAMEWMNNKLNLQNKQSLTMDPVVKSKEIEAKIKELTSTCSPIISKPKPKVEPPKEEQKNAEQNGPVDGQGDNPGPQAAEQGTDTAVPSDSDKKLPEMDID
Description: as §3

fibroblasts (MRC-5) = assay: Cell viability assay (XTT or Presto Blue), fibroblasts; format: cell-based, human; conditions: 20 µM, up to 12 h
Excerpt: as §1, §2

[2] = tested on: melanocytes (HEMn-LP non-malignant skin cells); assay: Cell viability assay (XTT or Presto Blue), primary melanocytes; format: cell-based, human; conditions: 20 µM, up to 12 h
Excerpt: as §1, §2

[3] = 2 µM Hsc70, 0.5 µM DnaJB1, 0.4 µM Apg2, 0.4 µM G6PDH aggregates, means ± SD of three experiments, read-out: IC50 G6PDH Reactivation Hsc70 + DnaJB1 + Apg2

Row | SMILES | Effect on cell viability (toxicity), MeWo (MeWo cells) | Effect on cell viability (toxicity), A2058 (A2058 cells) | Toxicity in non-transformed cell lines [1] | IC50 (Hsc70 + DnaJB1) | IC50 (Hsc70 + DnaJB1 + Apg2; [3]) | IC50 (Hsc70 + DnaJB1 + Apg2) | Fold lower toxic concentration in melanoma cell lines than IC50 for the isolated chaperone system (A2058 cells; melanoma cell lines (A2058 and MeWo) versus IC50 of the isolated chaperone system) | Toxicity in fibroblasts (fibroblasts (MRC-5)) | Toxicity in melanocytes [2]
1 | [H]/N=C(\N/C(=N/[H])NCCCCCCNC(=N)NC(=N)Nc1ccc(Cl)cc1)Nc1ccc(Cl)cc1 [Compound 1, (1E)-2-[6-[[amino-[(E)-[amino-(4-chloroanilino)methylidene]amino]methylidene]amino]hexyl]-1-[amino-(4-chloroanilino)methylidene]guanidine] | Cell viability decreased | Cell viability decreased | toxicity in several non-transformed cell lines | 11.9 ± 0.2 µM | 14.5 ± 1.8 µM | – | – | – | –
2 | CCc1oc2ccccc2c1C(=O)c1cc(Br)c(O)c(Br)c1 [Compound 3, (3,5-dibromo-4-hydroxyphenyl)-(2-ethyl-1-benzofuran-3-yl)methanone] | no toxicity was observed | no toxicity was observed | – | 10.1 ± 0.4 µM | – | 17.6 ± 0.1 µM | – | – | –
3 | CC=C(C)C(=O)OC1C(OC(C)=O)C2(CO)C(O)CC3(C)C(=CCC4C5(C)CCC(OC6OC(C(=O)O)C(OC7OC(CO)C(O)C(O)C7O)C(O)C6OC6OC(CO)C(O)C(O)C6O)C(C)(CO)C5CCC43C)C2CC1(C)C (centres unmarked) [Compound 4] | – | – | – | 37.3 ± 1.8 µM | 47 ± 5.6 µM | – | – | – | –
4 | Cl.O[C@@H](c1cc(C(F)(F)F)nc2c(C(F)(F)F)cccc12)[C@H]1CCCCN1 [Compound 5, (S)-[2,8-bis(trifluoromethyl)quinolin-4-yl]-[(2R)-piperidin-2-yl]methanol hydrochloride] | Cell viability decreased | Cell viability decreased | – | 107 ± 7.5 µM | 97.3 ± 21.1 µM | – | around 7 fold | no toxicity was observed | no toxicity was observed
5 | O=C(O)Cc1cc(I)c(Oc2ccc(O)c(I)c2)c(I)c1 [Compound 6, 2-[4-(4-hydroxy-3-iodophenoxy)-3,5-diiodophenyl]acetic acid] | no toxicity was observed | no toxicity was observed | – | – | – | – | – | – | –

From article PMC8230956, “Inhibition of the Human Hsc70 System by Small Ligands as a Potential Anticancer Approach” (Cancers, 2021)
